PubChem BioAssay AID256 (DTP/NCI, 2004)
“And” between values parts separate entries of the source, which are not always exact repeats. Identical values can stand only once. Toxic doses and inconclusive results are not listed.

Tested on: CD2F1 mice, L1210 leukemia ip, survival T/C
Test: NCI In Vivo Anticancer Drug Screen. Data for tumor model L1210 Leukemia (intraperitoneal) in CD2F1 (CDF1) mice
Conditions: higher = longer survival
How it was run: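 Read-out first: treated-group measurement over vehicle-control measurement, expressed as a ratio. Animals bore a transplanted tumor line and were dosed with compound or vehicle.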

[1] = endpoint: mean survival time, dose: 100.0 mg/kg/injection, schedule: Q04DX003 (ip), vehicle: saline with Tween-80
[2] = endpoint: mean survival time, dose: 200.0 mg/kg/injection, schedule: Q04DX003 (ip), vehicle: saline with Tween-80
[3] = endpoint: mean survival time, dose: 400.0 mg/kg/injection, schedule: Q04DX003 (ip), vehicle: saline with Tween-80
[4] = endpoint: mean survival time, dose: 25.0 mg/kg/injection, schedule: Q04DX003 (ip), vehicle: saline with Tween-80
[5] = endpoint: mean survival time, dose: 100.0 mg/kg/injection, schedule: Q01DX009 (ip), vehicle: saline with Tween-80
[6] = endpoint: mean survival time, dose: 200.0 mg/kg/injection, schedule: Q01DX009 (ip), vehicle: saline with Tween-80
[7] = endpoint: mean survival time, dose: 400.0 mg/kg/injection, schedule: Q01DX009 (ip), vehicle: saline with Tween-80
[8] = endpoint: mean survival time, dose: 50.0 mg/kg/injection, schedule: Q01DX009 (ip), vehicle: saline
[9] = endpoint: mean survival time, dose: 50.0 mg/kg/injection, schedule: Q01DX009 (ip), vehicle: saline with Tween-80
[10] = endpoint: mean survival time, dose: 50.0 mg/kg/injection, schedule: Q01DX009 (ip), vehicle: Klucel (hydroxypropylcellulose) (HPC)
[11] = endpoint: mean survival time, dose: 100.0 mg/kg/injection, schedule: Q01DX009 (ip), vehicle: Klucel (hydroxypropylcellulose) (HPC)

`Nc1nc(Br)nc2c1ncn2C1CC(O)C(CO)O1` (stereo not drawn) was tested, and the T/C (endpoint: median survival time, dose: 3.8 mg/kg/injection, schedule: Q03HX009 (ip), vehicle: saline) was 120 % of control, the T/C (endpoint: median survival time, dose: 10.0 mg/kg/injection, schedule: Q03HX024 (ip), vehicle: saline) was 152 % of control and the T/C (endpoint: median survival time, dose: 15.0 mg/kg/injection, schedule: Q03HX009 (ip), vehicle: water) was 163 % of control. For the same compound, the T/C (endpoint: median survival time, dose: 20.0 mg/kg/injection, schedule: Q03HX024 (ip), vehicle: saline) was 164 % of control and 174 % of control, the T/C (endpoint: median survival time, dose: 30.0 mg/kg/injection, schedule: Q03HX009 (ip), vehicle: suspension in saline) was 195 % of control and the T/C (endpoint: median survival time, dose: 30.0 mg/kg/injection, schedule: Q03HX009 (ip), vehicle: water) was 237 % of control. The T/C (endpoint: median survival time, dose: 30.0 mg/kg/injection, schedule: Q03HX024 (ip), vehicle: saline) was 329 % of control, the T/C (endpoint: median survival time, dose: 40.0 mg/kg/injection, schedule: Q03HX024 (ip), vehicle: saline) was 728 % of control and the T/C (endpoint: median survival time, dose: 53.0 mg/kg/injection, schedule: Q03DX003 (ip), vehicle: saline) was 121 % of control. The T/C (endpoint: median survival time, dose: 60.0 mg/kg/injection, schedule: Q03HX009 (ip), vehicle: suspension in saline) was 243 % of control, the T/C (endpoint: median survival time, dose: 60.0 mg/kg/injection, schedule: Q03HX009 (ip), vehicle: water) was 221 % of control and the T/C (endpoint: median survival time, dose: 80.0 mg/kg/injection, schedule: Q03DX003 (ip), vehicle: saline) was 118 % of control. For the same compound, the T/C (endpoint: median survival time, dose: 120.0 mg/kg/injection, schedule: Q03DX003 (ip), vehicle: saline) was 122 % of control and the T/C (endpoint: median survival time, dose: 120.0 mg/kg/injection, schedule: Q03HX009 (ip), vehicle: suspension in saline) was 193 % of control.

With `CC(Cl)CN(CC(C)Cl)c1ccc2c(c1)Cc1cc(F)ccc1-2` (stereo not drawn) the T/C [1] was 98 % of control, the T/C [2] was 96 % of control and the T/C [3] was 100 % of control.

With `Cc1c(O)ccc([N+](=O)[O-])c1O` the T/C (endpoint: mean survival time, dose: 12.5 mg/kg/injection, schedule: Q04DX003 (ip), vehicle: saline with Tween-80) was 107 % of control and the T/C [4] was 102 % of control.

For `CCOC(=O)C(OCC)c1ccccc1` (stereo not drawn), the T/C [5] was 105 % of control, the T/C [6] was 101 % of control and the T/C [7] was 95 % of control.

`N/C(=N\Cl)C(Cl)(Cl)Cl` was tested, and the T/C (endpoint: mean survival time, dose: 12.5 mg/kg/injection, schedule: Q01DX009 (ip), vehicle: saline) was 105 % of control, the T/C (endpoint: mean survival time, dose: 25.0 mg/kg/injection, schedule: Q01DX009 (ip), vehicle: saline) was 103 % of control and the T/C [8] was 109 % of control.

`Nc1nc(Cl)nc(Cl)n1` was tested, and the T/C (endpoint: mean survival time, dose: 12.5 mg/kg/injection, schedule: Q01DX001 (ip), vehicle: saline with Tween-80) was 102 % of control, the T/C (endpoint: mean survival time, dose: 25.0 mg/kg/injection, schedule: Q01DX001 (ip), vehicle: saline with Tween-80) was 105 % of control and the T/C (endpoint: mean survival time, dose: 50.0 mg/kg/injection, schedule: Q01DX001 (ip), vehicle: saline with Tween-80) was 100 % of control.

`Nc1nc(N)c2nc(COc3ccc(C(=O)NC(CCC(=O)O)C(=O)O)cc3)cnc2n1` (stereo not drawn) was tested, and the T/C (endpoint: mean survival time, dose: 0.38 mg/kg/injection, schedule: Q01DX009 (ip), vehicle: saline with Tween-80) was 110 % of control, the T/C (endpoint: mean survival time, dose: 0.75 mg/kg/injection, schedule: Q01DX009 (ip), vehicle: saline with Tween-80) was 109 % of control and the T/C (endpoint: mean survival time, dose: 1.5 mg/kg/injection, schedule: Q01DX009 (ip), vehicle: sodium bicarbonate) was 168 % of control. The T/C (endpoint: mean survival time, dose: 3.0 mg/kg/injection, schedule: Q01DX009 (ip), vehicle: saline with Tween-80) was 95 % of control, the T/C (endpoint: mean survival time, dose: 3.0 mg/kg/injection, schedule: Q01DX009 (ip), vehicle: sodium bicarbonate) was 179 % of control and the T/C (endpoint: mean survival time, dose: 6.0 mg/kg/injection, schedule: Q01DX009 (ip), vehicle: sodium bicarbonate) was 157 % of control.

For `O=C(Nc1cc(S(=O)(=O)O)cc2cc(S(=O)(=O)O)c(N=Nc3ccc([As](=O)(O)O)cc3)c(O)c12)c1ccc([N+](=O)[O-])cc1`, the T/C (endpoint: mean survival time, dose: 12.5 mg/kg/injection, schedule: Q04DX002 (ip), vehicle: saline) was 101 % of control, the T/C (endpoint: mean survival time, dose: 25.0 mg/kg/injection, schedule: Q04DX002 (ip), vehicle: saline) was 94 % of control and the T/C (endpoint: mean survival time, dose: 50.0 mg/kg/injection, schedule: Q04DX002 (ip), vehicle: saline) was 94 % of control.

With `[Cl][Pt+2][Cl].[NH-]c1ccc(F)cc1.[NH-]c1ccc(F)cc1` the T/C (endpoint: mean survival time, dose: 3.13 mg/kg/injection, schedule: Q04DX003 (ip), vehicle: distilled water + Tween-80) was 102 % of control, the T/C (endpoint: mean survival time, dose: 6.25 mg/kg/injection, schedule: Q04DX003 (ip), vehicle: distilled water + Tween-80) was 104 % of control and the T/C (endpoint: mean survival time, dose: 12.5 mg/kg/injection, schedule: Q04DX003 (ip), vehicle: distilled water + Tween-80) was 102 % of control. For the same compound, the T/C (endpoint: mean survival time, dose: 25.0 mg/kg/injection, schedule: Q04DX003 (ip), vehicle: distilled water + Tween-80) was 108 % of control, the T/C (endpoint: mean survival time, dose: 50.0 mg/kg/injection, schedule: Q04DX003 (ip), vehicle: distilled water + Tween-80) was 108 % of control and the T/C (endpoint: mean survival time, dose: 100.0 mg/kg/injection, schedule: Q04DX003 (ip), vehicle: distilled water + Tween-80) was 93 % of control.

`O=P(Oc1ccccc1)(Oc1ccccc1)C(Nc1ccccc1)c1ccccc1` (stereo not drawn) was tested, and the T/C [5] was 88 % of control, the T/C [6] was 97 % of control and the T/C [7] was 89 % of control.

For `Cc1cc([N+](=O)[O-])ccc1P(=O)(O)O`, the T/C [8] was 88 % of control.

`NC(=O)N1c2c(nc(N)[nH]c2=O)NCC1CNc1ccc(C(=O)NC(CCC(=O)O)C(=O)O)cc1` (stereo not drawn) was tested, and the T/C (endpoint: mean survival time, dose: 100.0 mg/kg/injection, schedule: Q01DX001 (ip), vehicle: sodium bicarbonate) was 102 % of control, the T/C (endpoint: mean survival time, dose: 200.0 mg/kg/injection, schedule: Q01DX001 (ip), vehicle: sodium bicarbonate) was 97 % of control and the T/C (endpoint: mean survival time, dose: 400.0 mg/kg/injection, schedule: Q01DX001 (ip), vehicle: sodium bicarbonate) was 96 % of control.

`O=C1OC(=O)c2ccc([N+](=O)[O-])c3c([N+](=O)[O-])ccc1c23` was tested, and the T/C [1] was 92 % of control, the T/C [2] was 95 % of control and the T/C [3] was 90 % of control.

With `CCCC/C=C/C(C)O` (stereo not drawn) the T/C [9] was 100 % of control, the T/C [5] was 100 % of control and the T/C [1] was 98 % of control. The T/C [6] was 95 % of control, the T/C [2] was 103 % of control and the T/C [3] was 103 % of control.

In the case of `CC1CC(C)(C)N=C(Cc2ccccc2)O1` (stereo not drawn), the T/C (endpoint: mean survival time, dose: 100.0 mg/kg/injection, schedule: Q01DX001 (ip), vehicle: saline with Tween-80) is reported as 101 % of control, the T/C (endpoint: mean survival time, dose: 200.0 mg/kg/injection, schedule: Q01DX001 (ip), vehicle: saline with Tween-80) is reported as 93 % of control and the T/C (endpoint: mean survival time, dose: 400.0 mg/kg/injection, schedule: Q01DX001 (ip), vehicle: saline with Tween-80) is reported as 96 % of control.

For `O=[N+]([O-])O`, the T/C [9] was 86 % of control and the T/C [5] was 86 % of control.

For `CC(C)(C)NC(=O)CCC(CC(=O)NC(C)(C)C)C1([N+](=O)[O-])CCCCC1` (stereo not drawn), the T/C [5] was 92 % of control and the T/C [6] was 86 % of control.

With `Nc1nc(N)c2c(n1)CN(c1ccccc1)C2` the T/C (endpoint: mean survival time, dose: 75.0 mg/kg/injection, schedule: Q01DX001 (ip), vehicle: saline) was 102 % of control, the T/C (endpoint: mean survival time, dose: 150.0 mg/kg/injection, schedule: Q01DX001 (ip), vehicle: saline) was 104 % of control and the T/C (endpoint: mean survival time, dose: 300.0 mg/kg/injection, schedule: Q01DX001 (ip), vehicle: saline) was 106 % of control.

With `CC1OC(OC2CC(O)(C(=O)CO)Cc3c(O)c4c(c(O)c32)C(=O)c2ccccc2C4=O)CC(N)C1O` (stereo not drawn) the T/C (endpoint: mean survival time, dose: 0.03 mg/kg/injection, schedule: Q01DX009 (ip), vehicle: water) was 114 % of control, the T/C (endpoint: mean survival time, dose: 0.13 mg/kg/injection, schedule: Q01DX009 (ip), vehicle: water) was 151 % of control and the T/C (endpoint: mean survival time, dose: 0.25 mg/kg/injection, schedule: Q01DX009 (ip), vehicle: water) was 175 % of control. The T/C (endpoint: mean survival time, dose: 1.0 mg/kg/injection, schedule: Q01DX009 (ip), vehicle: water) was 102 % of control.

`N#CC(C#N)=Cc1ccc2c(c1)CCC2` was tested, and the T/C (endpoint: mean survival time, dose: 25.0 mg/kg/injection, schedule: Q01DX009 (ip), vehicle: saline with Tween-80) was 93 % of control, the T/C [4] was 100 % of control and the T/C [9] was 96 % of control. The T/C (endpoint: mean survival time, dose: 50.0 mg/kg/injection, schedule: Q04DX003 (ip), vehicle: saline with Tween-80) was 90 % of control, the T/C [5] was 94 % of control and the T/C [1] was 95 % of control.

`Cc1c2c(c(O)c3c(O)cccc13)C(=O)C1(O)C(O)=C(C(N)=O)C(=O)CC1C2` (stereo not drawn) was tested, and the T/C (endpoint: mean survival time, dose: 75.0 mg/kg/injection, schedule: Q01DX001 (ip), vehicle: other) was 92 % of control, the T/C (endpoint: mean survival time, dose: 150.0 mg/kg/injection, schedule: Q01DX001 (ip), vehicle: other) was 94 % of control and the T/C (endpoint: mean survival time, dose: 300.0 mg/kg/injection, schedule: Q01DX001 (ip), vehicle: other) was 102 % of control.

For `OC(c1ccccc1Cl)C(Cl)(Cl)Cl` (stereo not drawn), the T/C [10] was 96 % of control, the T/C [11] was 93 % of control and the T/C (endpoint: mean survival time, dose: 200.0 mg/kg/injection, schedule: Q01DX009 (ip), vehicle: Klucel (hydroxypropylcellulose) (HPC)) was 104 % of control.

`CCc1cc(C(C)(C)C)c(O)c(C(C)(C)C)c1` was tested, and the T/C (endpoint: mean survival time, dose: 25.0 mg/kg/injection, schedule: Q01DX009 (ip), vehicle: Klucel (hydroxypropylcellulose) (HPC)) was 102 % of control, the T/C [10] was 102 % of control and the T/C [11] was 98 % of control.
